In ChEMBL document CHEMBL4825724, “Synthesis and biological evaluation of platensic alcohol as an adamantane surrogate in antitumor drug lead adaphostin” (Bioorg Med Chem Lett, 2021):
In brackets after ≈: the same amount, converted by molar mass. Activity calls are given as the source filed them. The rule behind the calls is not given here.

Columns and labels:
[1] = test system: Jurkat; test: Cytotoxicity against human Jurkat cells assessed as cell growth inhibition measured after 72 hrs by CCK8 assay; type: functional, cell-based
[2] = test system: A549; test: Cytotoxicity against human A549 cells assessed as cell growth inhibition measured after 72 hrs by CCK8 assay; type: functional, cell-based; details: A549, 72 h
[3] = Half life in human serum incubated up to 24 hrs by HPLC analysis; type: ADME, cell-free
[4] = Cytotoxicity against human KPL-4 cells assessed as cell growth inhibition measured after 72 hrs by CCK8 assay; type: functional, cell-based; details: KPL4, 72 h
[5] = test system: Caco-2; test: Cytotoxicity against human Caco-2 cells assessed as cell growth inhibition measured after 72 hrs by CCK8 assay; type: functional, cell-based; details: Caco-2, 72 h
[6] = test system: Jurkat; test: Antagonistic cytotoxicity against human Jurkat cells assessed as decrease in cell viability at 0.1 to 25 uM measured after 72 hrs in presence of vorinostat; type: functional, cell-based; details: dose 0.1-25 µM
[7] = test system: Jurkat; test: Induction of ROS generation in human Jurkat cells assessed as increase in intracellular ROS level measured after 4 hrs in presence of vorinostat; type: functional, cell-based
[8] = test system: Jurkat; test: Induction of ROS generation in human Jurkat cells at 5 uM measured after 4 hrs by DCFH-DA staining based flourescence assay relative to H2O2; type: functional, cell-based
[9] = test system: Jurkat; test: Induction of ROS generation in human Jurkat cells at 1 uM measured after 2 hrs by DCFH-DA staining based flourescence assay relative to H2O2; type: functional, cell-based
[10] = test system: Staphylococcus aureus; test: Antibacterial activity against methicillin-resistant Staphylococcus aureus; type: functional

half-life [3] [h]	Compound	IC50 [1] [µM]	IC50 [2] [µM]	IC50 [4] [µM]	IC50 [5] [µM]	Activity [6]	Activity [7]	Activity [8]	Activity [9]	MIC [10] [mg/L]
3	COC(=O)c1ccc(NCc2cc(O)ccc2O)cc1	13.1	23.2	15.6	15.1					
12	CC12CC34CC[C@H](OC(=O)c5ccc(NCc6cc(O)ccc6O)cc5)[C@@](C)(CCCOC(=O)c5ccc(NCc6cc(O)ccc6O)cc5)C3C(CC1C4)O2 (stereo not given in full)	5	9.6	7.7	7	Active	Active	Active	Active	
	C[C@]12C[C@@]34C=CC(=O)[C@@](C)(CCC(=O)Nc5c(O)ccc(C(=O)O)c5O)[C@@H]3[C@H](C[C@@H]1C4)O2									0.2 (≈ 0.453 µM)
	O=C(NNC(=O)C12CC3CC(CC(C3)C1)C2)c1ccc(NCc2cc(O)ccc2O)cc1	16	> 100	> 100	> 100					
12	O=C(OC12CC3CC(CC(C3)C1)C2)c1ccc(NCc2cc(O)ccc2O)cc1	3.1	20.1	4.6	8	inactive			Active	
	C[C@@]1(CCC(=O)Nc2c(O)ccc(C(=O)O)c2O)C(=O)C=CC23CC4CC(CC(C4)C21)C3 (stereo not given in full)									1.3 (≈ 2.96 µM)
	O=C(O)c1ccc(NCc2cc(O)ccc2O)cc1	20.4	> 100	> 100	49.8					
	CC12CC34C=CC(=O)[C@@](C)(CCC(=O)NNC(=O)c5ccc(NCc6cc(O)ccc6O)cc5)C3C(CC1C4)O2 (stereo not given in full)	> 100	> 100	> 100	65.2					
5	CC12CC34CC[C@H](O)[C@@](C)(CCCO)C3C(CC1C4)O2 (stereo not given in full)	7.3	35.9	2.7	37.5					
